# Source: patent US9309225B2, “N-((1-benzyl-1H-1,2,3-triazol-4-yl)methyl)arylamide compounds as potential anticancer agents and a process for the preparation thereof” (COUNCIL OF SCIENTIFIC & INDUSTRIAL RESEARCH, priority 2013, dated 2016)
# Tests used:
# [1] = tested on: NCI-H226; test: NCI sixty human tumor cell line screen, Non-small-cell-lung panel; assay type: cell-based; conditions: NCI protocol
# Protocol: (§1) The in vitro anticancer activity studies for these N-((1-benzyl-1H-1,2,3-triazol-4-yl)methyl) arylamide analogues were carried out at the National Cancer Institute, USA.
# (§2) The N-((1-benzyl-1H-1,2,3-triazol-4-yl)methyl)arylamide analogues have been tested at NCI, USA, against sixty human tumor cell lines derived from nine cancer types (leukemia, non-small cell lung cancer, colon cancer, CNS cancer, melanoma cancer, ovarian cancer, renal cancer, prostate cancer and breast cancer). For these compounds results are expressed as growth inhibition (GI50) values as per NCI protocol.
# [2] = tested on: NCI-H522; test: as above; assay type: cell-based; conditions: NCI protocol
# Protocol: as §1, §2
# [3] = tested on: EKVX; test: as above; assay type: cell-based; conditions: NCI protocol
# Protocol: as §1, §2
# [4] = tested on: HOP-62; test: as above; assay type: cell-based; conditions: HOP-62, Non-small-cell-lung, NCI protocol
# Protocol: as §1, §2
# [5] = tested on: A549/ATCC; test: as above; assay type: cell-based; conditions: NCI protocol
# Protocol: as §1, §2
# [6] = tested on: NCI-H460; test: as above; assay type: cell-based; conditions: NCI protocol
# Protocol: as §1, §2
# [7] = tested on: NCI/ADR-RES; test: NCI sixty human tumor cell line screen, Ovarian panel; assay type: cell-based; conditions: NCI protocol
# Protocol: as §1, §2
# [8] = tested on: OVCAR-3; test: as above; assay type: cell-based; conditions: OVCAR-3, Ovarian, NCI protocol
# Protocol: as §1, §2
# [9] = tested on: OVCAR-8; test: as above; assay type: cell-based; conditions: OVCAR-8, Ovarian, NCI protocol
# Protocol: as §1, §2
# [10] = tested on: OVCAR-4; test: as above; assay type: cell-based; conditions: OVCAR-4, Ovarian, NCI protocol
# Protocol: as §1, §2
# [11] = tested on: SK-OV-3; test: as above; assay type: cell-based; conditions: SK-OV-3, Ovarian, NCI protocol
# Protocol: as §1, §2
# [12] = tested on: DU-145; test: NCI sixty human tumor cell line screen, Prostate panel; assay type: cell-based; conditions: DU-145, Prostate, NCI protocol
# Protocol: as §1, §2
# [13] = tested on: PC-3; test: as above; assay type: cell-based; conditions: PC-3, Prostate, NCI protocol
# Protocol: as §1, §2
# [14] = tested on: SF-539; test: NCI sixty human tumor cell line screen, CNS panel; assay type: cell-based; conditions: SF-539, CNS, NCI protocol
# Protocol: as §1, §2
# [15] = tested on: SF-295; test: NCI sixty human tumor cell line screen, CNS panel; assay type: cell-based; conditions: SF-295, CNS, NCI protocol
# Protocol: as §1, §2
# [16] = tested on: U251; test: NCI sixty human tumor cell line screen, CNS panel; assay type: cell-based; conditions: U-251, NCI protocol
# Protocol: as §1, §2
# [17] = tested on: SNB-19; test: NCI sixty human tumor cell line screen, CNS panel; assay type: cell-based; conditions: SNB-19, CNS, NCI protocol
# Protocol: as §1, §2
# [18] = tested on: SF-268; test: NCI sixty human tumor cell line screen, CNS panel; assay type: cell-based; conditions: SF-268, CNS, NCI protocol
# Protocol: as §1, §2
# [19] = tested on: SNB-75; test: NCI sixty human tumor cell line screen, CNS panel; assay type: cell-based; conditions: SNB-75, CNS, NCI protocol
# Protocol: as §1, §2
# [20] = tested on: HT29; test: NCI sixty human tumor cell line screen, Colon panel; assay type: cell-based; conditions: HT-29, NCI protocol
# Protocol: as §1, §2
# [21] = tested on: HCT-116; test: as above; assay type: cell-based; conditions: HCT-116, Colon, NCI protocol
# Protocol: as §1, §2
# [22] = tested on: SW-620; test: as above; assay type: cell-based; conditions: SW-620, Colon, NCI protocol
# Protocol: as §1, §2
# [23] = tested on: KM12; test: as above; assay type: cell-based; conditions: NCI protocol
# Protocol: as §1, §2
# [24] = tested on: COLO 205; test: as above; assay type: cell-based; conditions: COLO 205, Colon, NCI protocol
# Protocol: as §1, §2
# [25] = tested on: BT-549; test: NCI sixty human tumor cell line screen, Breast panel; assay type: cell-based; conditions: BT-549, Breast, NCI protocol
# Protocol: as §1, §2
# [26] = tested on: T-47D; test: as above; assay type: cell-based; conditions: T47D, NCI protocol
# Protocol: as §1, §2
# [27] = tested on: MDA-MB-31/ATCC; test: as above; assay type: cell-based; conditions: NCI protocol
# Protocol: as §1, §2
# [28] = tested on: MDA-MB-468; test: as above; assay type: cell-based; conditions: MDA-MB-468, Breast, NCI protocol
# Protocol: as §1, §2
# [29] = tested on: LOX IMVI; test: NCI sixty human tumor cell line screen, Melanoma panel; assay type: cell-based; conditions: NCI protocol
# Protocol: as §1, §2
# [30] = tested on: MDA-MB-435; test: as above; assay type: cell-based; conditions: MDA-MB-435, Melanoma, NCI protocol
# Protocol: as §1, §2
# [31] = tested on: M14; test: as above; assay type: cell-based; conditions: NCI protocol
# Protocol: as §1, §2
# [32] = tested on: UACC-62; test: as above; assay type: cell-based; conditions: UACC-62, Melanoma, NCI protocol
# Protocol: as §1, §2
# [33] = tested on: SK-MEL-5; test: as above; assay type: cell-based; conditions: SK-MEL-5, Melanoma, NCI protocol
# Protocol: as §1, §2
# [34] = tested on: SK-MEL-28; test: as above; assay type: cell-based; conditions: SK-MEL-28, Melanoma, NCI protocol
# Protocol: as §1, §2
# [35] = tested on: SK-MEL-2; test: as above; assay type: cell-based; conditions: SK-MEL-2, Melanoma, NCI protocol
# Protocol: as §1, §2
# [36] = tested on: A498; test: NCI sixty human tumor cell line screen, Renal panel; assay type: cell-based; conditions: NCI protocol
# Protocol: as §1, §2
# [37] = tested on: UO-31; test: as above; assay type: cell-based; conditions: UO-31, Renal, NCI protocol
# Protocol: as §1, §2
# [38] = tested on: CAKI-1; test: as above; assay type: cell-based; conditions: CAKI-1, Renal, NCI protocol
# Protocol: as §1, §2
# [39] = tested on: ACHN; test: as above; assay type: cell-based; conditions: NCI protocol
# Protocol: as §1, §2
# [40] = tested on: RXF 393; test: as above; assay type: cell-based; conditions: RXF 393, Renal, NCI protocol
# Protocol: as §1, §2
# [41] = tested on: TK-10; test: as above; assay type: cell-based; conditions: TK-10, Renal, NCI protocol
# Protocol: as §1, §2
# [42] = tested on: SN12C; test: as above; assay type: cell-based; conditions: NCI protocol
# Protocol: as §1, §2
# [43] = tested on: 786-0; test: as above; assay type: cell-based; conditions: 786-0, Renal, NCI protocol
# Protocol: as §1, §2
smiles,measurement,setting,value
"COc1ccc(Nc2ncccc2C(=O)NCc2cn(Cc3cccc(Oc4ccccc4)c3)nn2)c(OC)c1 [Compound 1g, 2-(2,4-Dimethoxyphenylamino)-N-((1-(3-phenoxybenzyl)-1H-1,2,3-triazol-4-yl)methyl) nicotinamide]",GI50,[1],2.24 µM
same,GI50,[2],1.82 µM
same,GI50,[3],5.09 µM
same,GI50,[4],12.7 µM
same,GI50,[5],4.15 µM
same,GI50,[6],3.05 µM
same,GI50,[7],2.12 µM
same,GI50,[8],1.54 µM
same,GI50,[9],4.1 µM
same,GI50,[10],5.11 µM
same,GI50,[11],2.59 µM
same,GI50,[12],3.37 µM
same,GI50,[13],0.62 µM
same,GI50,[14],2.65 µM
same,GI50,[15],0.56 µM
same,GI50,[16],3.6 µM
same,GI50,[17],3.33 µM
same,GI50,[18],3.88 µM
same,GI50,[19],3.41 µM
same,GI50,[20],3.26 µM
same,GI50,[21],3.08 µM
same,GI50,[22],2.12 µM
same,GI50,[23],1.65 µM
same,GI50,[24],2.14 µM
same,GI50,[25],3.51 µM
same,GI50,[26],4.28 µM
same,GI50,[27],5.54 µM
same,GI50,[28],1.46 µM
same,melting point,,127 to 129 °C
same,GI50,[29],3.01 µM
same,GI50,[30],0.25 µM
same,GI50,[31],2.13 µM
same,GI50,[32],1.43 µM
same,GI50,[33],0.72 µM
same,GI50,[34],2.6 µM
same,GI50,[35],7.67 µM
same,GI50,[36],1.01 µM
same,GI50,[37],8.06 µM
same,GI50,[38],1.71 µM
same,GI50,[39],4.83 µM
same,GI50,[40],7.83 µM
same,GI50,[41],3.14 µM
same,GI50,[42],1.71 µM
same,GI50,[43],4.06 µM
"COc1cc(Nc2ncccc2C(=O)NCc2cn(Cc3cccc(Oc4ccccc4)c3)nn2)cc(OC)c1 [Compound 1i, 2-(3,5-Dimethoxyphenylamino)-N-((1-(3-phenoxybenzyl)-1H-1,2,3-triazol-4-yl)methyl) nicotinamide]",GI50,[1],9.82 µM
same,GI50,[2],3.31 µM
same,GI50,[3],6.33 µM
same,GI50,[4],6.31 µM
same,GI50,[5],4.02 µM
same,GI50,[6],3.98 µM
same,GI50,[7],3.21 µM
same,GI50,[8],3.69 µM
same,GI50,[9],5.96 µM
same,GI50,[10],5.42 µM
same,GI50,[11],4.33 µM
same,GI50,[12],1.05 µM
same,GI50,[13],4.74 µM
same,GI50,[14],4.39 µM
same,GI50,[15],4.06 µM
same,GI50,[16],4.58 µM
same,GI50,[17],9.64 µM
same,GI50,[18],5.43 µM
same,GI50,[19],3.98 µM
same,GI50,[20],3.88 µM
same,GI50,[21],4.34 µM
same,GI50,[22],3.88 µM
same,GI50,[23],3.84 µM
same,GI50,[24],4.12 µM
same,GI50,[25],7.16 µM
same,GI50,[26],4.68 µM
same,GI50,[27],5.35 µM
same,GI50,[28],2.42 µM
same,melting point,,123 to 125 °C
same,GI50,[29],5.1 µM
same,GI50,[30],2.23 µM
same,GI50,[31],4.8 µM
same,GI50,[32],3.86 µM
same,GI50,[33],3.11 µM
same,GI50,[34],4.14 µM
same,GI50,[35],6.69 µM
same,GI50,[36],4.18 µM
same,GI50,[37],5.25 µM
same,GI50,[38],6.3 µM
same,GI50,[39],6.9 µM
same,GI50,[40],3.77 µM
same,GI50,[41],5.16 µM
same,GI50,[42],7.41 µM
same,GI50,[43],6.73 µM
